Reference: US4992257A, “Dihydroporphyrins and method of treating tumors” (Efamol Holdings PLC, priority 1988, dated 1991)

Key:
[1] = tested on: PC6 plasma cell tumour; test: Tumour photo-necrosis: depth of tumour necrosis after sensitiser injection and 10 J cm^-2 light; type: in vivo, female BALB/c mice; conditions: mean ± SE
Experimental: (§1) the method of testing is that the PC6 plasma cell tumour, obtained initially from the Chester Beatty Research Institute, was grown by inoculating 0.3-0.6×10^6 cells subcutaneously in female BALB/c mice. It was used about two weeks later, when it was […] in its longest diameter and […] deep. Sensitisers were injected in dimethyl sulphoxide intra-peritoneally (2.5 ul g^-1) and, twenty four hours later, skin over the tumours was depilated, the mice anaesthetised and tumours exposed to 10 J cm^-2 light. Wavelengths for illumination were the longest wavelength absorption peaks in the red in solutions of sensitiser in fetal calf serum, and were 652-653 nm for the compounds of Examples 1 to 3 and 741 nm for the compound of Example 4. The light source was a copper vapour laser with an output of 10 to 12 watts (Cu 10 laser, Oxford Lasers Ltd) pumping a D2 10K dye laser (Oxford Lasers Ltd). The dye was rhodamine 640 (Applied Photophysics Ltd) for illumination at 652-653 nm and LDS-722 for illumination at 741 nm. Light intensity at the tumour surface was kept below 0.3 W cm^-2, where thermal effects were undetectable.
Twenty four hours after illumination […], 0.2 ml 1% Evans blue (Sigma) in saline was given intravenously and tumours were removed one hour later and fixed in formolsaline. The fixed tumours were sliced at right angles to the surface and the depth of necrosis measured with a dissecting microscope fitted with an eye piece graticule.

[2] = tested on: Tumour; test: Degree of tumour necrosis obtained at an equivalent muscle damage level; type: in vivo; conditions: for tumour necrosis for specified levels of muscle damage, in words: versus corresponding compounds of EP-A-0,186,962
Description: (§2) In preliminary tests the new compounds have shown similar results as regards skin sensitivity to those given in EP-A-0,186,962. Moreover, the para and meta dihydroxy compounds have been shown specifically, improved properties in other respects which may be expected in all the compounds.

[3] = Muscle oedema (muscle damage) for specified depths of tumour necrosis; type: in vivo; conditions: for muscle damage for specified levels of tumour necrosis, in words: versus corresponding compounds of EP-A-0,186,962
Description: as §2

[4] = Longest wavelength absorption peak in the red in fetal calf serum; type: physicochemical; conditions: in solutions of sensitiser in fetal calf serum
Experimental: as §1

[5] = at muscle oedema 10% increase in muscle weight
[6] = at muscle oedema 20% increase in muscle weight
[7] = at depth of tumour necrosis 3.0 mm
[8] = at depth of tumour necrosis 3.5 mm
[9] = at depth of tumour necrosis 4.0 mm
[10] = at depth of tumour necrosis 5.0 mm
[11] = at depth of tumour necrosis 5.5 mm

| Compound | Tumour Necrosis [2, 5] | Tumour Necrosis [2, 6] | tumour necrosis for specified levels of muscle damage, in words [2] | Muscle Oedema (% Increase in Weight) [3, 7] | Muscle Oedema (% Increase in Weight) [3, 8] | muscle damage for specified levels of tumour necrosis, in words [3] | Muscle Oedema (% Increase in Weight) [3, 9] | Muscle Oedema (% Increase in Weight) [3, 10] | Muscle Oedema (% Increase in Weight) [3, 11] | other results |
| --- | --- | --- | --- | --- | --- | --- | --- | --- | --- | --- |
| Oc1ccc(-c2c3nc(c(-c4ccc(O)cc4)c4ccc([nH]4)c(-c4ccc(O)cc4)c4nc(c(-c5ccc(O)cc5)c5ccc2[nH]5)CC4)C=C3)cc1 [Example 1, 2,3-dihydro-5,10,15,20-tetra(p-hydroxyphenyl) porphyrin] | 3.5 mm | ~4.0 mm | more tumour necrosis than the corresponding compounds of EP-A-0,186,962 | 8% | 10% | considerably less muscle damage than the corresponding compounds of EP-A-0,186,962 |  |  |  | Depth of Tumour Necrosis ([1]; dose 3.125 μM/Kg i.p., 653 nm): 2.13 ± 0.50 mm; Depth of Tumour Necrosis ([1]; dose 6.25 μM/Kg i.p., 653 nm): 3.50 ± 0.54 mm |
| Oc1cccc(-c2c3nc(c(-c4cccc(O)c4)c4ccc([nH]4)c(-c4cccc(O)c4)c4nc(c(-c5cccc(O)c5)c5[nH]c2CC5)C=C4)C=C3)c1 [Example 2, 2,3-dihydro-5,10,15,20-tetra(m-hydroxyphenyl) porphyrin] | 5.5-6 mm | 6.5 mm | more tumour necrosis than the corresponding compounds of EP-A-0,186,962 |  | 2% | considerably less muscle damage than the corresponding compounds of EP-A-0,186,962 | 3% | 5% | 7% | Depth of Tumour Necrosis ([1]; dose 0.375 μM/Kg i.p., 652 nm): 3.79 ± 0.28 mm; Depth of Tumour Necrosis ([1]; dose 0.75 μM/Kg i.p., 652 nm): 5.41 ± 0.39 mm |
| Oc1ccc(-c2c3nc(c(-c4ccc(O)cc4)c4ccc([nH]4)c(-c4ccc(O)cc4)c4nc(c(-c5ccc(O)cc5)c5ccc2[nH]5)C=C4)C=C3)cc1 [Para (Compounds of EP-A-0186962), 5,10,15,20-Tetra(p-hydroxyphenyl)porphyrin, reference compound] | 2.25 mm | 3.0 mm |  | 20% | 22% |  |  |  |  |  |
| Oc1cccc(-c2c3nc(c(-c4cccc(O)c4)c4ccc([nH]4)c(-c4cccc(O)c4)c4nc(c(-c5cccc(O)c5)c5ccc2[nH]5)C=C4)C=C3)c1 [Meta (Compounds of EP-A-0186962), 5,10,15,20-tetra(m-hydroxyphenyl) porphyrin, reference compound] | 3.5 mm | 4.0 mm |  |  | 10% |  | 20% | 36% | 49% |  |
| Oc1ccccc1-c1c2nc(c(-c3ccccc3O)c3ccc([nH]3)c(-c3ccccc3O)c3nc(c(-c4ccccc4O)c4[nH]c1CC4)C=C3)C=C2 [Example 3, 2,3-dihydro-5,10,15,20-tetra (o-hydroxyphenyl) porphyrin] |  |  |  |  |  |  |  |  |  | Depth of Tumour Necrosis ([1]; dose 3.125 μM/Kg i.p., 652 nm): 3.69 ± 0.74 mm; Depth of Tumour Necrosis ([1]; dose 6.25 μM/Kg i.p., 652 nm): 4.16 ± 0.27 mm |
| Oc1cccc(-c2c3nc(c(-c4cccc(O)c4)c4ccc([nH]4)c(-c4cccc(O)c4)c4nc(c(-c5cccc(O)c5)c5ccc2[nH]5)CC4)CC3)c1 [Example 4, 7,8,17,18-tetrahydro-5,10,15,20-tetra(m-hydroxyphenyl) porphyrin] |  |  |  |  |  |  |  |  |  | Depth of Tumour Necrosis ([1]; dose 0.39 μM/Kg i.p., 741 nm): 5.22 ± 1.21 mm; longest wavelength absorption peak in the red [4]: 741 nm |
